Experiments:
[1] = target: T1, wild type androgen receptor (GFPAR) (Homo sapiens, UniProt P10275); experiment: Fluorescence microscopy of COS-1 cells transfected with GFPAR; type: cell-based; details: COS-1, 5 micromolar
T1 construct: GFP (green fluorescent protein); expressed in transfected cells; host or cells: COS-1 (monkey kidney)
T1 sequence (P10275 1-920): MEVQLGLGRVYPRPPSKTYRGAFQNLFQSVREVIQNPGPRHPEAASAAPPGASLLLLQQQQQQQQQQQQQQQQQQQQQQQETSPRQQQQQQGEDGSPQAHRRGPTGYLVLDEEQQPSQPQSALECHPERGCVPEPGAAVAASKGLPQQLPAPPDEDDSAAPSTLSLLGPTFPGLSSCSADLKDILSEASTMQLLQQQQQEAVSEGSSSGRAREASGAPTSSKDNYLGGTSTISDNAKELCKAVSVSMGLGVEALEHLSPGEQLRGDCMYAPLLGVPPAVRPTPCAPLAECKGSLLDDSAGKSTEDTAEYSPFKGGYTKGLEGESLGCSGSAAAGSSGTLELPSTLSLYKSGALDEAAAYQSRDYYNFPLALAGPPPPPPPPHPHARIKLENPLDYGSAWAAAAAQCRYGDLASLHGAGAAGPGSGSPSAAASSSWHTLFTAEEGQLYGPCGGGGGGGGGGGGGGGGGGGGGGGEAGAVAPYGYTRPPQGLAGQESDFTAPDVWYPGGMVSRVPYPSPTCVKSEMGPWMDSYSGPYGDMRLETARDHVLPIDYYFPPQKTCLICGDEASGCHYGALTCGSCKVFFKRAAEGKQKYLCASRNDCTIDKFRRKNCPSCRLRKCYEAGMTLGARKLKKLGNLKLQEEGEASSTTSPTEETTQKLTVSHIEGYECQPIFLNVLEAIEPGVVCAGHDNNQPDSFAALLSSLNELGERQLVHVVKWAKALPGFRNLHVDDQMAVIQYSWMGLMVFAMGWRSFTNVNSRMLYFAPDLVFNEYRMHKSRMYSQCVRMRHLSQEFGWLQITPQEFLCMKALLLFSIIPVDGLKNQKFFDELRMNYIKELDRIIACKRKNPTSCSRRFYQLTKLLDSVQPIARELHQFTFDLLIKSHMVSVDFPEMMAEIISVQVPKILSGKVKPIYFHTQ
Description: Monkey kidney COS-1 cells were plated at a density of 3×10^4 cells per 0.5-milliliter volume onto alcohol-cleaned and sterilized cover slips placed in 35-millimeter suspension culture dishes containing Dulbecco's modified Eagle's (DME) medium containing 10% FBS. The cells were transfected with plasmids containing the wild type AR (GFPAR) or poly Q49 (plasmid GFPARQ49) mutant androgen receptor and green fluorescent protein (GFP) as a reporter. For each coverslip, 12.3 microliters SuperFect was added to 3.075 micrograms plasmid in 102.5 microliters DME medium (to give a 1:4 ratio of DNA to SuperFect reagent); the mixture was vortexed briefly, and the complex allowed to form over 15 minutes. Each mixture then received 897 microliters CD/DME and was mixed gently. The resulting 1-milliliter volumes were added to the dishes containing the coverslips (final plasmid concentration was […] per dish). Cells were allowed to incubate with the transfection solution for 5 hours, then the medium was changed to fresh 1.5 milliliters CD/DME medium with either vehicle (DMSO) only added or ASC-J9 (final concentration 5 micromolar). […] The coverslips were air-dried, mounted on slides with a glycerol-based mounting agent, and stored at 4 degrees Celsius if necessary prior to observation with fluorescence microscopy. […]

[2] = test system: testosterone-induced hair growth suppression; experiment: Testosterone-induced alopecia model, hair re-growth; type: in vivo, C57BL/6J mice; details: testosterone mornings
Description: C57BL/6J mice were used in this animal model for hair loss and regrowth (Uno et al. (1990) J. Cutaneous Aging & Cosm. Derm., 1:193, which is incorporated by reference in its entirety herein). Six-week-old male mice (6 to 7 animals per group) were shaved with an electric clipper, and then treated with a hair-removal cream for 1 to 2 minutes. […] One day after hair removal, a first group of animals each received 100 microliters of a 1% testosterone solution in ethanol, applied topically to the shaved area, once each morning for twenty consecutive days. A second group of animals each received 100 microliters of vehicle (ethanol) alone, applied topically to the shaved area, once each morning for twenty consecutive days. The first group of mice (testosterone-treated) were divided further into a control group and a treatment group. Also beginning one day after hair removal, each mouse in the control group received 100 microliters of a control solution (60% ethanol, 20% propylene glycol, and 20% water) and each mouse in the treatment group received 100 microliters of the test compound, ASC-J9 (0.02% in the same 60% ethanol, 20% propylene glycol, and 20% water solution), applied topically to the shaved area, once each afternoon for twenty consecutive days. Hair re-growth in the shaved areas was observed and photographed at 0, 4, 8, 11 and 14 days after beginning of the topical treatments.

Compound: COc1ccc(C=CC(=O)C=C(O)C=Cc2ccc(OC)c(OC)c2)cc1OC [ASC-J9, 5-hydroxy-1,7-bis(3,4-dimethoxyphenyl)-1,4,6-heptatrien-3-one]
- GFPAR fluorescence (expression of wild type AR) [1]: reduces (or degrades) the expression of AR
- hair re-growth in shaved areas ([2]; 0.02% topical afternoons, day 8 to day 17): rapid re-growth of hair
- hair re-growth in shaved areas ([2]; topical afternoons, after 20 days): fully re-growth of hair
